Here are results for 15 compounds from patent US5091409A (priority 1990, dated 1992).

The target in one data set is carbonic anhydrase (Homo sapiens, UniProt P00918). The data set is described as follows: carbonic anhydrase inhibition (I50) and Ki, methods of Ponticello et al., J. Med. Chem., 30, 591 (1987). Type of data set: biochemical. As to conditions: for IC50: carbonic anhydrase inhibition.
A further data set relates to intraocular pressure. As to conditions: cited from earlier work.
Data set [1] relates to ocular hypertensive monkey. The data set is described as follows: drop in IOP in the ocular hypertensive monkey (Lee et al., Curr. Eye Res., 4,775-781 (1985)). The data set is classed as in vivo. As to conditions: 16 hours after treatment.
The mark [2] stands for this setting: carbonic anhydrase, main value, read-out: Ki.
The mark [3] stands for this setting: value in parentheses, hi = more active component of racemic mixture, read-out: Ki (hi).

Counter-ions that a name gives are not always drawn. Like-named read-outs stand apart in the source and are kept apart here.

One may read the Ki as the dissociation constant of the complex between target and ligand, obtained from inhibition or displacement. With `CC[C@H]1C[C@H](NC)c2cc(S(N)(=O)=O)sc2S1(=O)=O` (relative stereo) [Compound 4], the Ki on carbonic anhydrase (setting [2]) was determined as 3.6 nM; at carbonic anhydrase (setting [3]) it was 1.8 nM. `CC[C@@H]1C[C@H](NC)c2cc(S(N)(=O)=O)sc2S1(=O)=O` (relative stereo) [Compound 5]: the figures for the Ki at carbonic anhydrase (setting [2]) and on carbonic anhydrase (setting [3]) were 7.1 nM and 2.6 nM, respectively. On the same counts, the results for `CCC[C@H]1C[C@H](NC)c2cc(S(N)(=O)=O)sc2S1(=O)=O` (relative stereo) [Compound 6] are 2.1 nM and 0.85 nM. Consider `CCC[C@@H]1C[C@H](NC)c2cc(S(N)(=O)=O)sc2S1(=O)=O` (relative stereo) [Compound 7], for which the Ki at carbonic anhydrase (setting [2]) turned out to be 2.8 nM; at carbonic anhydrase (setting [3]) it was 0.64 nM. For orientation: IC50 means the concentration that inhibits the measured activity by half. At carbonic anhydrase, `C=CC[C@H]1C[C@H](NCC)c2cc(S(N)(=O)=O)sc2S1(=O)=O` (relative stereo) [Compound 12, trans-6-Allyl-5,6-dihydro-4-ethylamino-4H-thieno[2,3-b]thiopyran-2-sulfonamide-7,7-dioxide hydrochloride] registered an IC50 of 0.23 nM. `CCN[C@H]1C[C@@H](CC(C)C)S(=O)(=O)c2sc(S(N)(=O)=O)cc21` (relative stereo) [Compound 14]: the Ki is 2.6 nM on carbonic anhydrase (setting [2]) and 0.13 nM on carbonic anhydrase (setting [3]). Regarding `CC(C)(C)NC[C@H](O)COc1nsnc1N1CCOCC1` [(S)-1-tert-Butylamino[(4-morpholino-1,2,5-thiadiazol-3-yl)oxy]-2-propanol], the local anesthetic properties result with intraocular pressure (advantage over many other β-adrenergic blocking agents, background statement) is recorded as “devoid of local anesthetic properties”. Further, in the data set on intraocular pressure, the unwanted side effects entry was “devoid of many unwanted side effects associated with pilocarpine”.

Consider `CCC[C@H]1C[C@H](NCC)c2cc(S(N)(=O)=O)sc2S1(=O)=O.Cl` [Compound 1, (S,S) (-)5,6-Dihydro-4-ethylamino-6-(n-propyl)-4H-thieno[2,3-b]thiopyran-2-sulfonamide-7,7-dioxide hydrochloride], for which, in data set [1], the “drop in IOP” value amounted to 11.3 mmHg. `CCCN[C@H]1C[C@H](CCC)S(=O)(=O)c2sc(S(N)(=O)=O)cc21` [Compound 3] came in with an IC50 at carbonic anhydrase of 0.15 nM. Moreover, at carbonic anhydrase (setting [2]), the Ki was found to be 0.23 nM. With `CCN[C@H]1C[C@H](C)S(=O)(=O)c2sc(S(N)(=O)=O)cc21` [Compound 8], the “drop in IOP” value in data set [1] is 5.6 mmHg. For the compound `CCN[C@H]1C[C@H](CC)S(=O)(=O)c2sc(S(N)(=O)=O)cc21` [Compound 10], half-maximal inhibition against carbonic anhydrase (IC50) required 0.5 nM. The Ki at carbonic anhydrase (setting [2]) was found to be 0.3 nM. Take `CCN[C@H]1C[C@@H](CC)S(=O)(=O)c2sc(S(N)(=O)=O)cc21` [Compound 11]: the midpoint of inhibition at carbonic anhydrase, the IC50, lay at 0.8 nM. Further, the Ki on carbonic anhydrase (setting [2]) was found to be 1 nM. In the case of `C=CC[C@@H]1C[C@H](NCC)c2cc(S(N)(=O)=O)sc2S1(=O)=O` [Compound 13, cis-6-Allyl-5,6-dihydro-4H-4-ethylaminothieno[2,3-b]thiopyran-2-sulfonamide-7,7-dioxide hydrochloride], the “drop in IOP” value in data set [1] was 9.8 mmHg. On carbonic anhydrase, this compound yielded an IC50 of 0.21 nM. Moreover, on carbonic anhydrase (setting [2]), the Ki was 0.4 nM. As to `CNC(=O)Oc1ccc2c(c1)[C@]1(C)CCN(C)[C@@H]1N2C` [physostigmine], the “effect on intraocular pressure” value with intraocular pressure (background statement) is listed as “reduce intraocular pressure”. As to `CC[C@@H]1C(=O)OC[C@@H]1Cc1cncn1C` [pilocarpine], the “effect on intraocular pressure” value in the data set on intraocular pressure (background statement) was “reduce intraocular pressure”.
